Measured values published in US11214803B2, “Modulators of YAP1 expression” (Ionis Pharmaceuticals, Inc., priority 2019, dated 2022).
Where “and” joins values, the source holds several entries; their conditions need not be identical. Equal entries are not always repeated. Strand notation (5' to 3'): a small letter for the sugar, then the base; units joined by * are phosphorothioate-linked, units joined directly phosphodiester-linked; [ ] holds rarer units or linkages, { } end groups; capitals alone tell only the bases. k = constrained ethyl (cEt); [5mC] = 5-methylcytosine; d = 2'-deoxy (DNA)

Columns and labels:
[1] = Cynomolgus monkey tolerability, pro-inflammatory proteins analysis, Complement C3 and CRP (Example 34); assay type: in vivo; details: cynomolgus monkeys, 35 mg/kg subcutaneously; for CRP: day 44
Method: To evaluate any inflammatory effect of Ionis oligonucleotides in cynomolgus monkeys, blood samples were taken for analysis. The monkeys were fasted overnight prior to blood collection. On day 42 (pre-dose and 24 hours post-dose), approximately 0.8 mL of blood was collected from each animal and put into tubes without anticoagulant for serum separation. […] Complement C3 were measured using a Toshiba 120 FR NEO chemistry analyzer (Toshiba Co., Japan). […] Another marker of inflammation, C-Reactive Protein (CRP) was tested together with the clinical chemistry parameters tested for liver function above.

[2] = cynomolgus monkey, in vivo, sc, 35 mg/kg
Method: (§2) Prior to the study, the monkeys were kept in quarantine during which the animals were observed daily for general health. The monkeys were 2-4 years old and weighed 2-4 kg. Eleven groups of 4 randomly assigned male cynomolgus monkeys each were injected subcutaneously with Ionis oligonucleotide or saline in a clock-wise rotation between four different sites on the back. Following loading doses on days 1, 3, 5 and 7, the monkeys were dosed once per week (on days 14, 21, 28, 35, and 42) with 35 mg/kg of Ionis oligonucleotide.
To evaluate the effect of Ionis oligonucleotides on hepatic and kidney function, blood samples were collected from all the study groups on day 44. The monkeys were fasted overnight prior to blood collection. Blood was collected in tubes without anticoagulant for serum separation. The tubes were kept at room temperature for a minimum of 90 minutes and then centrifuged at 3000 rpm for 10 minutes to obtain serum. Levels of various liver function markers were measured using a Toshiba 200FR NEO chemistry analyzer (Toshiba Co., Japan).

[3] = Cynomolgus monkey tolerability, urine analysis (Example 34); details: cynomolgus monkeys, 35 mg/kg subcutaneously, day 44
Method: as §2
Food was removed overnight the day before fresh urine collection, but water was supplied. Fresh urine samples for urinalysis and urine chemistry were collected from all animals using a clean cage pan on wet ice (first in the morning) on day 44. Urinalysis/Urine Chemistry parameters creatinine (UCRE), microprotein (UTP), urine microalbumin (UALB), and protein/creatinine (P/C) ratio were measured using a Toshiba 120FR automated chemistry analyzer (Toshiba Co., Japan).

[4] = Cynomolgus monkey tolerability, hematology (Example 34); assay type: in vivo, cynomolgus monkeys; details: for BAS / EOS / HCT / HGB / LUC / LYM / MCH / MCHC / MCV / MON / NEU / PLT / RBC / RCDW / Retic / WBC: cynomolgus monkey, in vivo, sc, 35 mg/kg; for MPV: cynomolgus monkeys, 35 mg/kg subcutaneously, day 44
Method: To evaluate any effect of Ionis oligonucleotides in cynomolgus monkeys on hematologic parameters, blood samples of approximately 0.5 mL of blood was collected from each of the available study animals on day 44. The samples were collected in tubes containing K2-EDTA. Samples were analyzed for red blood cell (RBC) count, Hemoglobin (HGB), Hematocrit (HCT), Mean corpuscular volume (MCV), mean corpuscular hemoglobin (MCH), mean corpuscular hemoglobin concentration (MCHC), RBC Distribution Width (RCDW), reticulocyte count (Retic), platelet count (PLT), mean platelet volume (MPV), white blood cells (WBC) count, individual white blood cell counts, such as that of monocytes (MON), neutrophils (NEU), lymphocytes (LYM), eosinophils (EOS), basophils (BAS), and large unstained cells (LUC) using an ADVIA2120i hematology analyzer (Siemens, USA).

[5] = tested on: Yap1 mRNA; experiment: Dose-dependent inhibition of human Yap1 in SNU-449 cells (Example 9, RTS36584); assay type: cell-based; details: free uptake; for % UTC (Yap1 mRNA): approximately 48 hours; for IC50: linear regression on a log/linear plot
Summary of the method: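 SNU-449 cells (10,000/well) took up modified oligonucleotides by free uptake at a range of doses for about 48 h. Yap1 mRNA was quantified with primer-probe set RTS36584, normalised to RIBOGREEN total RNA and expressed as % untreated control; IC50 from linear regression on log/linear plot.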

[6] = tested on: Yap1 mRNA; experiment: Yap1 mRNA in SCC25 cells, RNA analysis (Example 25); assay type: cell-based, human; details: free uptake, 48 hours, RTS4814, normalized to actin-beta
Method: (§1) Modified oligonucleotides described in the studies above were tested at various doses in squamous cell carcinoma cell SCC25. A control oligonucleotide 792169 (a 3-10-3 cET gapmer with a full phosphorothioate backbone, […], designated herein as SEQ ID No.: 2940; is not complementary to any known human gene) was also tested.
Cultured SCC25 cells at a density of 5,000 cells per well were treated using free uptake with modified oligonucleotides diluted to concentrations described in the tables below. After approximately 48 hours, Yap1 mRNA levels were measured as previously described using the Human Yap1 primer-probe set RTS4814. Yap1 mRNA levels were normalized to actin-beta content, as measured by primer probe set RTS5002 (forward sequence […], designated herein as SEQ ID NO.: 20; reverse sequence […], designated herein as SEQ ID NO.: 21; probe sequence […], designated herein as SEQ ID NO.: 22). Results are presented in the tables below as percent control of the amount of Yap1 mRNA relative to untreated control cells (% UTC).

[7] = tested on: SCC25 cells; experiment: Cell proliferation assay in SCC25 cells, CellTiter-Glo (Example 25); assay type: cell-based, human; details: free uptake, 144 hours
Method: as §1
Cultured SCC25 cells at a density of 1,000 cells/well were treated using free uptake with modified oligonucleotides diluted to concentrations described in the tables below. After approximately 144 hours, cell proliferation was measured using the luminescent cell viability CellTiter-Glo® 2.0 Assay (Promega). Results are presented in the tables below as percent control of the amount of luminescence in samples treated with modified oligonucleotides relative to untreated control cells (% UTC).

[8] = tested on: Yap1 mRNA; experiment: Inhibition of human Yap1 mRNA in SNU449 hepatocellular carcinoma xenograft tumors (Example 26); assay type: in vivo; details: SNU449 xenografts in NSG mice, 50 mg/kg twice weekly for five days, relative to PBS treated animals
Summary of the method: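 Female NSG mice bearing subcutaneous SNU449 xenografts (about 100 mm^3) dosed with modified oligonucleotides at 50 mg/kg twice weekly for five days, four per group. Tumour Yap1 mRNA measured by RT-qPCR, normalized to actin-beta, expressed as % of PBS-treated controls.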

Substance	Complement C3 ([1]; Day 42 (pre-dose)) [mg/dL]	Complement C3 ([1]; day 42 (24 hr post-dose)) [mg/dL]	CRP [1] [mg/L]	A/G ratio [2]	UALB [3] [mg/dL]	UCRE [3] [mg/dL]	UTP [3] [mg/dL]	BAS [4] [%]	EOS [4] [%]	% UTC (Yap1 mRNA) ([5]; 125.0 nM)	IC50 [5]	Yap1 mRNA, % UTC ([6]; 0.04 μM) [% UTC]	Yap1 mRNA, % UTC ([6]; 0.2 μM) [% UTC]	Yap1 mRNA, % UTC ([6]; 1 μM) [% UTC]	Yap1 mRNA, % UTC ([6]; 5 μM) [% UTC]	cell proliferation (luminescence) % UTC ([7]; 0.04 μM) [% UTC]	cell proliferation (luminescence) % UTC ([7]; 0.2 μM) [% UTC]	cell proliferation (luminescence) % UTC ([7]; 1 μM) [% UTC]	cell proliferation (luminescence) % UTC ([7]; 5 μM) [% UTC]	Yap1 mRNA in tumors, % control [8] [% control]	other results
958499 (ATTAGAGTATGTGGCA; 3-10-3 cEt gapmer, further chemistry not given here) [compound 958499]	112	89	9.9	1.3	0.1	60	16	0.4	1.1	47 % UTC	200 nM	47	22	10	4	76	42	25	14	54	HCT [4]: 43%; HGB [4]: 12 g/dL; LUC [4]: 1.2%; LYM [4]: 44%; MCH [4]: 22 pg; MCHC [4]: 29 g/dL; MCV [4]: 77 fL; MON [4]: 3.5%; NEU [4]: 49%; PLT [4]: 399 10^3/μL; RBC [4]: 5.6e+06 µL⁻¹; RCDW [4]: 12%; Retic [4]: 1.5%; WBC [4]: 12000 µL⁻¹; MPV [4]: 7.6 fL; % UTC (Yap1 mRNA) ([5]; 31.3 nM): 93 % UTC; % UTC (Yap1 mRNA) ([5]; 500.0 nM): 19 % UTC; % UTC (Yap1 mRNA) ([5]; 2000.00 nM): 7 % UTC
715487 (kA*kT*kT*dA*d[5mC]*dT*dT*d[5mC]*dA*dT*dA*dG*d[5mC]*kT*kT*kA) [compound 715487]	–	–	–	–	–	–	–	–	–	47 % UTC and 44 % UTC and 56 % UTC and 53 % UTC and 73 % UTC and 70 % UTC and 62 % UTC and 48 % UTC	400 nM and 300 nM and 200 nM	–	–	–	–	–	–	–	–	61	–
1198440 (AAGTGTATGTCAGAAG; cEt, 2'-MOE, 5-methylcytosine, phosphorothioate modifications, further chemistry not given here) [compound 1198440]	95	88	4.8	1.4	0.2	53	13	0.4	2.8	23 % UTC	< 30 nM	39	14	5	3	73	33	22	16	51	HCT [4]: 47%; HGB [4]: 14 g/dL; LUC [4]: 0.7%; LYM [4]: 65%; MCH [4]: 23 pg; MCHC [4]: 29 g/dL; MCV [4]: 80 fL; MON [4]: 3.2%; NEU [4]: 28%; PLT [4]: 420 10^3/μL; RBC [4]: 5.9e+06 µL⁻¹; RCDW [4]: 12%; Retic [4]: 1.2%; WBC [4]: 10900 µL⁻¹; MPV [4]: 7.5 fL; % UTC (Yap1 mRNA) ([5]; 31.3 nM): 55 % UTC; % UTC (Yap1 mRNA) ([5]; 500.0 nM): 6 % UTC; % UTC (Yap1 mRNA) ([5]; 2000.00 nM): 2 % UTC
1198439 (AGTGTATGTCAGAAGA; sugar, 5-methylcytosine, phosphorothioate modifications, further chemistry not given here) [compound 1198439]	99	94	2.9	1.4	0.1	68	15	0.3	1.5	21 % UTC	< 30 nM	35	12	5	3	62	30	22	16	51	HCT [4]: 48%; HGB [4]: 14 g/dL; LUC [4]: 0.6%; LYM [4]: 68%; MCH [4]: 22 pg; MCHC [4]: 28 g/dL; MCV [4]: 79 fL; MON [4]: 2.9%; NEU [4]: 27%; PLT [4]: 367 10^3/μL; RBC [4]: 6e+06 µL⁻¹; RCDW [4]: 12%; Retic [4]: 1.2%; WBC [4]: 10300 µL⁻¹; MPV [4]: 7.6 fL; % UTC (Yap1 mRNA) ([5]; 31.3 nM): 44 % UTC; % UTC (Yap1 mRNA) ([5]; 500.0 nM): 5 % UTC; % UTC (Yap1 mRNA) ([5]; 2000.00 nM): 2 % UTC
CGCCGATAAGGTACAC (cEt gapmer, phosphorothioate backbone, further chemistry not given here) [ION 792169, reference compound]	–	–	–	–	–	–	–	–	–	–	–	96	89	93	98	103	104	100	88	–	–
1076453 (GTAATATTGCAATCTG; 3-10-3 cEt gapmer, further chemistry not given here) [compound 1076453]	101	88	1.5	1.3	0.1	50	14	0.4	1.1	29 % UTC	100 nM	59	21	7	3	81	40	23	15	56	HCT [4]: 43%; HGB [4]: 13 g/dL; LUC [4]: 1.2%; LYM [4]: 54%; MCH [4]: 23 pg; MCHC [4]: 29 g/dL; MCV [4]: 79 fL; MON [4]: 3.9%; NEU [4]: 39%; PLT [4]: 358 10^3/μL; RBC [4]: 5.5e+06 µL⁻¹; RCDW [4]: 15%; Retic [4]: 1.2%; WBC [4]: 10000 µL⁻¹; MPV [4]: 8.4 fL; % UTC (Yap1 mRNA) ([5]; 31.3 nM): 67 % UTC; % UTC (Yap1 mRNA) ([5]; 500.0 nM): 8 % UTC; % UTC (Yap1 mRNA) ([5]; 2000.00 nM): 1 % UTC
